This is an account of results in ChEMBL document CHEMBL1201862, “PubChem BioAssay data set” (2004).

Test systems include M19-MEL; HOP-18; RXF 631; LXFL 529; DLD-1; XF498; KM-20L2; SNB-78; DMS-114.
What all share (experiment): growth of human tumour cells (NCI), 48 h

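Results reflect a 48-hour exposure of cells in 96-well plates to compound at five concentrations. GI50 is the concentration that inhibits growth by half.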 Activity calls are given as the source filed them. No stated cut-off is given here; in the data, active = GI50 up to about 1.1 µM and inactive = higher.

On to `COc1ccc(-c2onc(-c3c(C)cc(C)cc3C)c2C2=NCCCN2)cc1`, for which the GI50 is > 100 µM (inactive) in the test on M19-MEL; 2.1 µM (inactive) in the test on HOP-18; 44.4 µM (inactive) in the test on RXF 631; > 100 µM (inactive) in the test on LXFL 529; 78.3 µM (inactive) with DLD-1; 60 µM (inactive) with XF498. For the same compound, the GI50 with KM-20L2 was 33.4 µM (inactive); in the test with SNB-78, 35.1 µM (inactive).
Turning to `COc1ccc(CC(=O)NCCc2ccc(OC)c(OC)c2OC)cc1`, the GI50 in the test with M19-MEL, with HOP-18, with RXF 631, in the test on LXFL 529, with DLD-1 and in the test with DMS-114 was > 100 µM (inactive) in each case. Further, the GI50 in the test with XF498, in the test with KM-20L2 and in the test with SNB-78 was > 100 µM (inactive) each time.
For the compound `O=C1OC(c2cccc(C(F)(F)F)c2)c2ccc3ccccc3c21` (stereo unspecified), the GI50 in the test on M19-MEL was > 10 µM (inactive); in the test with HOP-18, > 10 µM (inactive); in the test on RXF 631, 3.42 µM (inactive); with LXFL 529, 8.3 µM (inactive); with DLD-1, 4.79 µM (inactive); with DMS-114, 5.57 µM (inactive). The GI50 in the test with XF498 was > 100 µM (inactive); in the test with KM-20L2, > 10 µM (inactive); in the test on SNB-78, > 100 µM (inactive).
`NC(=S)N/C=C1\C(=O)Oc2ccccc2C1=O`: the GI50 was > 100 µM (inactive) in the test with M19-MEL; 39.2 µM (inactive) in the test with HOP-18; 85.7 µM (inactive) in the test on LXFL 529; 31.2 µM (inactive) with DLD-1; 48.4 µM (inactive) with DMS-114; 32.3 µM (inactive) in the test on XF498. Further, the results for the GI50 in the test on KM-20L2 and in the test on SNB-78 were > 100 µM (inactive) and 94.2 µM (inactive), respectively.
Take `O=C(Nc1cc(Cl)c(Cl)cc1Cl)C(=O)C1C=CCS1(=O)=O` (stereo unspecified): the GI50 in the test on M19-MEL, with HOP-18, in the test on LXFL 529, in the test with DLD-1, in the test on DMS-114 and with KM-20L2 was > 100 µM (inactive) in each case. For the same compound, in the test with SNB-78, the GI50 is 11.2 µM (inactive).
For the compound `O=[N+]([O-])c1ccc(/C=N/C2CCCCC2)cc1`, the GI50 in the test with M19-MEL, with HOP-18, with RXF 631, in the test with DLD-1, in the test with DMS-114 and in the test with XF498 was > 100 µM (inactive) in each case. The GI50 in the test on KM-20L2 and with SNB-78 was > 100 µM (inactive) throughout.
For `CCC(C)(O)c1cn(-c2cccc(S(=O)(=O)O)c2)nn1` (stereo unspecified), the GI50 in the test with HOP-18, in the test on LXFL 529, with DLD-1, with DMS-114, in the test on XF498 and in the test on KM-20L2 was > 100 µM (inactive) throughout. Further, the GI50 in the test with SNB-78 is > 100 µM (inactive).
In the case of `O=S1(=O)OCCOS(=O)(=O)C1(Cl)Cl`, the GI50 with M19-MEL, in the test on RXF 631, in the test with LXFL 529, in the test on DLD-1, in the test on DMS-114 and with XF498 was > 100 µM (inactive) each time. Besides, the GI50 in the test with SNB-78 is > 100 µM (inactive).
Turning to `COc1ccc(-c2nc(N)nc(-c3cc(C)ccc3O)c2Cl)cc1`, the GI50 is 93.3 µM (inactive) in the test on M19-MEL; > 100 µM (inactive) in the test with HOP-18; > 100 µM (inactive) in the test with RXF 631; 33 µM (inactive) in the test on LXFL 529; 39.9 µM (inactive) in the test with DLD-1; 48.2 µM (inactive) in the test on DMS-114. Moreover, the GI50 with XF498 was 35.6 µM (inactive); in the test with KM-20L2, > 100 µM (inactive); in the test with SNB-78, 24.3 µM (inactive).
In the case of `CCO/C=C1\N=C(c2ccccc2Br)OC1=O`, the GI50 in the test with M19-MEL, in the test on LXFL 529, with DLD-1, in the test on DMS-114, with XF498 and with KM-20L2 was > 100 µM (inactive) in each case. The GI50 in the test with SNB-78 was > 100 µM (inactive).
Turning to `CCCCCCC(/C=N/O)C(C)(O)CCC` (stereo unspecified), the GI50 with M19-MEL was > 100 µM (inactive); in the test on LXFL 529, > 100 µM (inactive); in the test with DLD-1, > 100 µM (inactive); in the test with DMS-114 it was 73.6 µM (inactive); in the test on XF498, 13.2 µM (inactive); in the test with KM-20L2, > 100 µM (inactive). Moreover, the GI50 in the test on SNB-78 is > 100 µM (inactive).
Consider `CCOc1ccc(NC(=O)CC2SC(Nc3ccc(C)cc3C)=NC2=O)cc1` (stereo unspecified), for which the GI50 with M19-MEL was > 100 µM (inactive); in the test on LXFL 529 it was 66.2 µM (inactive); in the test with DLD-1, > 100 µM (inactive); with XF498 it was 50.4 µM (inactive); in the test on KM-20L2, > 100 µM (inactive); in the test with SNB-78, > 100 µM (inactive).
In the case of `COC(=O)C(C(=O)C(=O)Nc1nnc(S)[nH]1)c1csc(N)n1` (stereo unspecified), the GI50 with M19-MEL, with HOP-18, in the test on RXF 631, in the test on LXFL 529, in the test on DLD-1 and in the test with XF498 was > 100 µM (inactive) each time. Besides, the GI50 with KM-20L2 and with SNB-78 was > 100 µM (inactive) throughout.
As for `COc1ccc(CCNCCCC2c3ccccc3-c3ccccc32)cc1OC`, the GI50 with M19-MEL was 11.1 µM (inactive); with HOP-18, 16.8 µM (inactive); with LXFL 529, 14.1 µM (inactive); with DLD-1, 16.1 µM (inactive); with DMS-114, 7.48 µM (inactive); in the test with XF498, 14.7 µM (inactive). The GI50 with KM-20L2 is 3.45 µM (inactive); in the test with SNB-78, 15.7 µM (inactive).
For the compound `COc1cc(/C=N\O[Si](C)(C)C(C)(C)C)ccc1O[Si](C)(C)C(C)(C)C`, the GI50 is 74.5 µM (inactive) in the test on M19-MEL; > 100 µM (inactive) in the test with HOP-18; 30.1 µM (inactive) in the test with RXF 631; 70.1 µM (inactive) in the test on LXFL 529; 89.9 µM (inactive) in the test with DLD-1; 28.1 µM (inactive) with DMS-114. Further, the GI50 was 38.6 µM (inactive) in the test on XF498, > 100 µM (inactive) in the test on KM-20L2 and > 100 µM (inactive) with SNB-78.
With `COc1cc(C(C)c2cc3c(cc2OCCCCCOc2cc4c(cc2C(C)c2cc(OC)c(OC)c(OC)c2)OCO4)OCO3)cc(OC)c1OC` (stereo unspecified), the GI50 in the test with M19-MEL, with LXFL 529, in the test on DLD-1 and in the test with KM-20L2 was > 100 µM (inactive) throughout.
Turning to `CCOC(=O)CC1(C(=O)OCC)c2[nH]c3ccccc3c2CCN1Cc1ccccc1` (stereo unspecified), the GI50 was 14.3 µM (inactive) in the test with M19-MEL; 23 µM (inactive) in the test on HOP-18; 25.4 µM (inactive) with LXFL 529; 24.4 µM (inactive) in the test with DLD-1; 18.3 µM (inactive) in the test with DMS-114; 24.2 µM (inactive) in the test on XF498. In addition, the GI50 in the test with KM-20L2 is 17.1 µM (inactive); with SNB-78, 40.7 µM (inactive).
With `CN(C)[C@@H]1C(O)=C(C(=O)NCNCCCC(=O)O)C(=O)[C@@]2(O)C(O)=C3C(=O)c4c(O)cccc4[C@@](C)(O)[C@H]3C[C@@H]12`, the GI50 with M19-MEL, in the test on HOP-18, in the test on LXFL 529, in the test on DLD-1, with DMS-114 and with XF498 was > 100 µM (inactive) throughout. Also, the GI50 in the test on KM-20L2 and in the test on SNB-78 was > 100 µM (inactive) each time.
Regarding `CNc1cccc(-c2cc(O)c3cc4c(cc3n2)OCO4)c1`, the GI50 with M19-MEL is 0.445 µM (active); in the test on HOP-18, 0.881 µM (active); with LXFL 529, 0.119 µM (active); with DLD-1 it was 0.181 µM (active); in the test on DMS-114, 0.723 µM (active); with XF498, 3.82 µM (inactive). For the same compound, the GI50 in the test on SNB-78 was 0.318 µM (active).
`N#C/C(=C\c1ccc2[nH]ccc2c1)C(=O)c1ccc(O)c(O)c1`: the GI50 is > 100 µM (inactive) in the test on M19-MEL; 71.4 µM (inactive) in the test on HOP-18; > 100 µM (inactive) in the test with LXFL 529; > 100 µM (inactive) in the test with DLD-1; 81.7 µM (inactive) in the test with DMS-114; 61.5 µM (inactive) in the test with KM-20L2. Also, in the test on SNB-78, the GI50 is > 100 µM (inactive).
